Laboratory results from PMC8187479, “Sugar phosphate activation of the stress sensor eIF2B” (Nature Communications, 2021).
Peptide text beside a SMILES is read from it.

These compounds were tested against T1, eIF2Bα (Homo sapiens, UniProt Q14232) (assay: MIDAS (mass spectrometry integrated with equilibrium dialysis) metabolite binding screen). Conditions: MIDAS metabolite binding screen with eIF2Bα; sheet "eIF2Ba".
T1 construct: made in house; host or cells: E. coli BL21(DE3)
T1 sequence (Q14232 1-305): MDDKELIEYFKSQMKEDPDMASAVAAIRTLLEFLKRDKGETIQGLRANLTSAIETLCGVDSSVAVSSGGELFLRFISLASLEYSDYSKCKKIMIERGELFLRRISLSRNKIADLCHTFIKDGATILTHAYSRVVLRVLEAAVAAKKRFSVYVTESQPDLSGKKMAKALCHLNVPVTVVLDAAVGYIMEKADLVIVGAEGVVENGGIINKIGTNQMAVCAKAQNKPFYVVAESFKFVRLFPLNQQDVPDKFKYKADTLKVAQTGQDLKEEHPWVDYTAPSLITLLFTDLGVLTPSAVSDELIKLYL
Description: Metabolites were combined into four defined screening pools. […] To the reverse side, 300 μL of 50 μM per metabolite pool was aliquoted and sealed (metabolite chamber). Loaded dialysis plates were placed in the dark at 4 °C on a rotating shaker (120 rpm) and incubated for 40 h. Post-dialysis, metabolites were isolated from each chamber by cold methanol extraction. Each sample was analyzed in technical triplicate by FIA-MS on a SCIEX X500R QTOF MS with interspersed blanks injections. The input metabolite pools were assayed at the beginning, middle, and end of each MS method batch for QC and normalization.
MIDAS FIA-MS spectra were processed in SCIEX OS 1.6 software to determine metabolite abundances by integrating the mean area under the curve for each extracted ion chromatogram. For each dialysis replicate, log2(fold change) for each metabolite was calculated as the difference between the log2 abundance in the protein chamber and metabolite chamber. For each technical triplicate, up to one outlier was removed using a z-score cutoff of five (<0.1% of observations). The corrected technical replicates were collapsed to one mean fold-change summary per protein-metabolite pair. To remove fold-change variation that was not specific to a given metabolite-protein pair, the first three principal components of the total screening dataset were removed on a per metabolite pool basis by subtracting the projection of the first 3 principal components, creating log2(corrected fold change). Protein-metabolite z-scores were determined by comparing the target protein-metabolite log2(corrected fold change) to a no-signal model for that metabolite using measures of the central tendency (median) and standard deviation (extrapolated from the 25–75% quantiles), which are robust to the signals in the tails of a metabolite’s fold-change distribution. Z-scores were false-discovery rate controlled using Storey’s q-value (qvalue, R) and protein-metabolite interactions with q-values < 0.1 were considered significant.

Q: `OC[C@@H](O)C(O)[C@H](O)CO` [D-Arabitol] was tested. Which “log2(corrected fold change)” value did it give?
A: 0.006339

Q: `CC(=O)NCC(=O)O` [Acetylamino-acetic acid] was tested. Which “log2(corrected fold change)” value did it give?
A: 0.03921

Q: For `O=C(O)C(=O)CO` [Hydroxypyruvate], which “log2(corrected fold change)” value is on record?
A: -0.04906

Q: `CC(=O)N[C@H]1[C@H]([C@H](O)[C@H](O)CO)O[C@](OP(=O)(O)OC[C@H]2O[C@@H](n3ccc(N)nc3=O)[C@H](O)[C@@H]2O)(C(=O)O)C[C@@H]1O` was tested. Which “log2(corrected fold change)” value did it give?
A: -0.01546

Q: How did the “log2(corrected fold change)” value turn out when `CC(C)CC(O)C(=O)O` (centres unmarked) [2-Hydroxyisocaproic acid] was run?
A: -0.0302

Q: For `O=C[C@H](O)[C@@H](O)[C@@H](O)CO` [L-Arabinose_1], which “log2(corrected fold change)” value is on record?
A: 0.02262

Q: With `NCCC(=O)N[C@@H](Cc1cnc[nH]1)C(=O)O` [L-Carnosine] as the compound, how does the “log2(corrected fold change)” value read?
A: -0.01554

Q: Which “log2(corrected fold change)” value does the source give for `CC(O)CC(=O)SCCNC(=O)CCNC(=O)[C@H](O)C(C)(C)COP(=O)(O)OP(=O)(O)OC[C@H]1O[C@@H](n2cnc3c(N)ncnc32)[C@H](O)[C@@H]1OP(=O)(O)O` (some centres unmarked) [3-Hydroxybutyryl coenzyme A] here?
A: 0.00715

Q: With `Nc1ncnc2c1ncn2[C@@H]1O[C@H](COP(=O)(O)OP(=O)(O)OP(=O)(O)O)[C@@H](O)[C@H]1O` [Adenosine triphosphate] as the compound, how does the “log2(corrected fold change)” value read?
A: 0.05437

Q: `CC(C)CC(=O)SCCNC(=O)CCNC(=O)[C@H](O)C(C)(C)COP(=O)(O)OP(=O)(O)OC[C@H]1O[C@@H](n2cnc3c(N)ncnc32)[C@H](O)[C@@H]1OP(=O)(O)O` [Isovaleryl coenzyme A] was tested. Which “log2(corrected fold change)” value did it give?
A: 0.1853

Q: With `CCCCCCCC(=O)SCCNC(=O)CCNC(=O)C(O)C(C)(C)COP(=O)(O)OP(=O)(O)OC[C@H]1O[C@@H](n2cnc3c(N)ncnc32)[C@H](O)[C@@H]1OP(=O)(O)O` (some centres unmarked) [Octanoyl coenzyme A] as the compound, how does the “log2(corrected fold change)” value read?
A: 0.3691

Q: How did the “log2(corrected fold change)” value turn out when `Cc1ncc(COP(=O)(O)O)c(CN)c1O` [Pyridoxamine-5-phosphate] was run?
A: -0.03281

Q: Which “log2(corrected fold change)” value does the source give for `NC(=O)c1ccc[n+]([C@@H]2O[C@H](COP(=O)([O-])OP(=O)(O)OC[C@H]3O[C@@H](n4cnc5c(N)ncnc54)[C@H](OP(=O)(O)O)[C@@H]3O)[C@@H](O)[C@H]2O)c1` [NADP] here?
A: 0.02005

Q: `N[C@@H](COP(=O)(O)O)C(=O)O` [O-Phospho-L-serine] was tested. Which “log2(corrected fold change)” value did it give?
A: 0.01938

Q: For `CC[C@@H](C)[C@H](N)C(=O)O` [L-Alloisoleucine], which “log2(corrected fold change)” value is on record?
A: -0.00688

Q: Which “log2(corrected fold change)” value does the source give for `O=C(O)CNC(=O)c1ccccc1` [Hippuric acid] here?
A: 0.07626

Q: `O=C(O)CC[C@@H](O)C(=O)O` [D-alpha-Hydroxyglutaric acid] was tested. Which “log2(corrected fold change)” value did it give?
A: -0.0058

Q: How did the “log2(corrected fold change)” value turn out when `CC(=O)N[C@@H](CC(=O)O)C(=O)N[C@@H](CCC(=O)O)C(=O)O` [N-Acetyl-Asp-Glu] (Ac-Asp-Glu-OH) was run?
A: 0.1173

Q: `CN1c2c(nc(N)[nH]c2=O)NCC1CNc1ccc(C(=O)N[C@@H](CCC(=O)O)C(=O)O)cc1` (some centres unmarked) [5-Methyltetrahydrofolic acid] was tested. Which “log2(corrected fold change)” value did it give?
A: 0.02128

Q: With `O=C(O)CC(O)(CC(=O)O)C(=O)O` [Citric acid] as the compound, how does the “log2(corrected fold change)” value read?
A: -0.01609

Q: For `NCCOP(=O)(O)OP(=O)(O)OC[C@H]1O[C@@H](n2ccc(N)nc2=O)[C@H](O)[C@@H]1O` [CDP-ethanolamine], which “log2(corrected fold change)” value is on record?
A: -0.00979

Q: How did the “log2(corrected fold change)” value turn out when `CC(C)(CO)[C@@H](O)C(=O)NCCC(=O)O` [Pantothenic acid] was run?
A: 0.0165

Q: `Nc1ncnc2c1ncn2[C@@H]1O[C@H](COP(=O)(O)OP(=O)(O)NP(=O)(O)O)[C@@H](O)[C@H]1O` [Adenyl imidodiphosphate] was tested. Which “log2(corrected fold change)” value did it give?
A: -0.08962

Q: `NC(=O)C1=CN([C@@H]2O[C@H](COP(=O)(O)OP(=O)(O)OC[C@H]3O[C@@H](n4cnc5c(N)ncnc54)[C@H](O)[C@@H]3O)[C@@H](O)[C@H]2O)C=CC1` [NADH] was tested. Which “log2(corrected fold change)” value did it give?
A: 0.1674

Q: With `CC(C)=CC(=O)O` [3,3-Dimethylacrylic acid] as the compound, how does the “log2(corrected fold change)” value read?
A: 0.01899

Q: Which “log2(corrected fold change)” value does the source give for `OC[C@H]1O[C@H](OC2[C@@H](O)[C@H](O)C(O)[C@H](O)[C@@H]2O)[C@H](O)[C@@H](O)[C@H]1O` (some centres unmarked) [Galactinol] here?
A: -0.02052

Q: With `O=C(O)C[C@H](O)[C@H](O)CO` [2-Deoxy-D-ribonic acid] as the compound, how does the “log2(corrected fold change)” value read?
A: -0.009975

Q: `OC[C@H]1O[C@@H](O[C@H]2[C@H](O)[C@@H](O)[C@H](O)O[C@@H]2CO)[C@H](O)[C@@H](O)[C@H]1O` [D-Lactose] was tested. Which “log2(corrected fold change)” value did it give?
A: -0.002139

Q: Which “log2(corrected fold change)” value does the source give for `C[C@@H]1O[C@H](OP(=O)(O)O)[C@@H](O)[C@H](O)[C@@H]1O` [L-Fucose 1-phosphate] here?
A: -0.0359

Q: With `Nc1ncnc2c1ncn2[C@@H]1O[C@H](CO)[C@@H](O)[C@H]1O` [Adenosine] as the compound, how does the “log2(corrected fold change)” value read?
A: 0.2973

Same assay, conditions: MIDAS screen, sheet eIF2Ba; metabolites screened in pools 1-4; p-value and q-value given

Q: For `Nc1nc(=O)c2c([nH]1)NC[C@@H](CNc1ccc(C(=O)N[C@@H](CCC(=O)O)C(=O)O)cc1)N2C=O` [Folinic acid], which “log2(corrected fold change)” value is on record?
A: 0.129

Q: Which “log2(corrected fold change)” value does the source give for `NC(=O)C[C@H](N)C(=O)O` [L-Asparagine] here?
A: 0.07649

Q: `CNCC(O)c1ccc(O)c(OC)c1` (centres unmarked) [Metanephrine] was tested. Which “log2(corrected fold change)” value did it give?
A: -0.1853

Q: Which “log2(corrected fold change)” value does the source give for `NCC(O)CCC(N)C(=O)O` (racemic) [DL-5-Hydroxylysine] here?
A: -0.09937

Q: For Phosphatidylserine, which “log2(corrected fold change)” value is on record?
A: 0.1166

Q: With `CC(=O)SCCNC(=O)CCNC(=O)[C@H](O)C(C)(C)COP(=O)(O)OP(=O)(O)OC[C@H]1O[C@@H](n2cnc3c(N)ncnc32)[C@H](O)[C@@H]1OP(=O)(O)O` [Acetyl coenzyme A] as the compound, how does the “log2(corrected fold change)” value read?
A: -0.09022

Q: How did the “log2(corrected fold change)” value turn out when `O=C(O)c1cccnc1` [Nicotinic acid] was run?
A: -0.1307

Q: With `CC(=O)N[C@@H]1[C@@H](O)[C@H](O)[C@@H](CO)O[C@@H]1O` [N-Acetyl-D-glucosamine] as the compound, how does the “log2(corrected fold change)” value read?
A: 0.3673

Q: Which “log2(corrected fold change)” value does the source give for `CC1CNC(=O)NC1=O` (centres unmarked) [Dihydrothymine] here?
A: -0.08021

Q: For `O=P(O)(O)OC[C@H](O)CO` [D-Glycerol 1-phosphate], which “log2(corrected fold change)” value is on record?
A: 0.1183

Q: For `O=C(O)[C@@H]1CCCN1` [L-Proline], which “log2(corrected fold change)” value is on record?
A: -0.05584

Q: With `O=C(O)Cc1ccc(O)c(O)c1` [3,4-Dihydroxyphenylacetic acid] as the compound, how does the “log2(corrected fold change)” value read?
A: 0.1411

Q: `Nc1ccccc1C(=O)O` [Anthranilate] was tested. Which “log2(corrected fold change)” value did it give?
A: -0.04243

Q: How did the “log2(corrected fold change)” value turn out when `Cc1ncc(C[n+]2csc(CCOP(=O)(O)O)c2C)c(N)n1` [Thiamine monophosphate] was run?
A: 0.1425

Q: `O=C(CO)COP(=O)(O)O` [Glycerone phosphate] was tested. Which “log2(corrected fold change)” value did it give?
A: 0.09175

Q: Which “log2(corrected fold change)” value does the source give for `O=C1C[C@@H](C(=O)O)NC(=O)N1` [L-Dihydroorotic acid] here?
A: -0.07946

Q: For `O=C(O)CNC(=O)c1ccco1` [N-2-Furoylglycine], which “log2(corrected fold change)” value is on record?
A: -0.1649

Q: Which “log2(corrected fold change)” value does the source give for `O=C(O)C(=O)Cc1ccccc1` [Phenylpyruvate] here?
A: 0.02641

Q: For Phosphatidylglycerol, which “log2(corrected fold change)” value is on record?
A: 0.1451

Q: `O=C(O)Cc1cc(O)ccc1O` [Homogentisic acid] was tested. Which “log2(corrected fold change)” value did it give?
A: -0.08584

Q: `C[N+](C)(C)CC(=O)O` [Betaine] was tested. Which “log2(corrected fold change)” value did it give?
A: 0.2268

Q: Which “log2(corrected fold change)” value does the source give for `O=C(COP(=O)(O)O)[C@@H](O)[C@H](O)[C@H](O)COP(=O)(O)O` [D-Fructose 1,6-bisphosphate] here?
A: -0.7792

Q: `O=C(O)c1cccnc1C(=O)O` [2,3-Pyridinedicarboxylic acid] was tested. Which “log2(corrected fold change)” value did it give?
A: 0.05596

Q: How did the “log2(corrected fold change)” value turn out when `COc1cc(CCN)ccc1O` [3-Methoxytyramine] was run?
A: 0.126

Q: How did the “log2(corrected fold change)” value turn out when `Nc1nc2c(c(=O)[nH]1)N=C(CNc1ccc(C(=O)N[C@@H](CCC(=O)O)C(=O)O)cc1)CN2` [Dihydrofolic acid] was run?
A: -0.03543

Q: How did the “log2(corrected fold change)” value turn out when `NCc1[nH]cc(CCC(=O)O)c1CC(=O)O` [Porphobilinogen] was run?
A: -0.05886

Q: `C[C@@H](O)CC(=O)O` [(R)-3-Hydroxybutyric acid] was tested. Which “log2(corrected fold change)” value did it give?
A: -0.1099

Q: How did the “log2(corrected fold change)” value turn out when `COc1ccc2[nH]cc(CCN)c2c1` [5-Methoxytryptamine] was run?
A: 0.274

Q: Which “log2(corrected fold change)” value does the source give for `NCCCCN=C(N)N` [Agmatine] here?
A: 0.1363

Q: How did the “log2(corrected fold change)” value turn out when `Nc1ccn([C@@H]2O[C@H](CO)[C@@H](O)[C@H]2O)c(=O)n1` [Cytidine] was run?
A: 0.2698

Q: How did the “log2(corrected fold change)” value turn out when `N[C@@H](CCC(=O)O)C(=O)O` [L-Glutamic acid] was run?
A: -0.006334

Q: How did the “log2(corrected fold change)” value turn out when `CSCC[C@H](N)C(=O)O` [L-Methionine] was run?
A: 0.06465

Q: Which “log2(corrected fold change)” value does the source give for Benzoate here?
A: 0.4135

Q: Which “log2(corrected fold change)” value does the source give for `CSCCC(=O)C(=O)O` [4-Methylthio-2-oxobutanoic acid] here?
A: 0.0884

Same assay, conditions: eIF2Bα2; 50 μM per metabolite pool; 40 h dialysis at 4 °C

Q: `N[C@@H](Cc1ccc(O)c(I)c1)C(=O)O` [iodotyrosine] was tested. Which “MIDAS result (enrichment in the protein chamber / hit status)” value did it give?
A: significantly enriched
